Columns and labels:
Type in all cases: physicochemical
[1] = Oscillatory rheology of peptide hydrogels (formation, shear-thin/recovery, UV photodisruption); conditions: for Storage modulus (G′) of formed gel, regime I time sweep: 1% w/v peptide, pH 7.4, 6 rad/s, 0.2% strain, APC1 after 30 minutes; for Onset of gelation after triggering: regime I
Source text: Oscillatory rheology was employed to study the rheological behavior of each gel under experimental conditions that mimic its use during the anastomosis procedure. Here, the storage modulus (G′), a measure of the gels' mechanical rigidity, is monitored in the rheometer under environmental conditions that mimic: (1) the initial (sol-gel) formation of the hydrogel in the syringe; (2) shear thinning of the material as it passes through the syringe needle during injection with subsequent hydrogel recovery in the vessel lumen; and (3) the disruption of the gel network (gel-sol) by UV photolysis after suturing. Monitoring gel behavior in a rheometer, although not exactly capturing the gel's response during the actual anastomosis procedure, allows quantitative and reproducible measurement of gel mechanical properties under highly controlled conditions. […] In regime I, the rate of hydrogel formation (sol-gel) is assessed in a time-sweep experiment that monitors the evolution of G′ after peptide folding and assembly is triggered for a 1% w/v solution of peptide. […] After completion of the initial time sweep, 1000% strain is applied to the material for 30 seconds in regime II to mimic syringe delivery of the gel. This application of strain results in an immediate decrease in G′ indicative of shear thinning that results in a viscous gel capable of flow. After the 30 seconds, the applied strain is decreased to 0.2% and the material is allowed to recover. […] Lastly, using an optically clear parallel plate in the rheometer, the recovered hydrogel is subjected to irradiation by UV light (365 nm) for the first 10 minutes of regime III, where the effect of photolysis on the storage modulus is monitored over time. […] Importantly, irradiation by UV rapidly disrupts the gel network affording a viscous material, which should be capable of dissolution when exposed to the shear of blood flow. Independent frequency- and strain-sweep measurements were also performed as shown in FIGS. 14A-14B and FIGS. 15A-15B.
Application of 1000% strain in the first 30 sec. of regime II quickly thins the APC2 gel. However, the resulting viscous material is unable to self-heal effectively and recovers only about 5% of its original mechanical rigidity. Finally, irradiation in regime III disrupts the weakly recovered gel. Although APC2 is initially able to form a very rigid gel, its inability to recover after being shear thinned precludes it use in the anastomosis procedure. […] Here, incorporation of the cage near the strand termini of the hairpin hampers the ability of the network to recover. Based on this rheological assessment, the APC1 gel was chosen for further study.
Oscillatory Rheology. Rheology experiments were performed on an AR-G2 Rheometer (TA Instruments, DE) equipped with a 25 mm stainless steel parallel plate geometry using a 0.5 mm gap height. A 2 wt % peptide solution was prepared by dissolving lyophilized peptide in water and chilling on ice. An equal volume of chilled 100 mM BTP, 300 mM NaCl, pH 7.4 buffer was added and gently mixed, then immediately transferred to the rheometer plate equilibrated at 5° C. In separate experiments, APC1 gels were prepared in syringe, or as a preformed slab, and incubated for 1 hour at 37° C. Gels were then shear-thinned delivered, or transferred as an intact gel slab, to the rheometer plate, respectively. A temperature ramp from 5° C. to the desired temperature (25° C. or 37° C.) over 100 seconds was performed, followed by a 60 minute dynamic time sweep using an angular frequency of 6 rads and application of 0.2% strain to monitor the storage (G′) and loss (G″) modulus of the hydrogel. The resulting hydrogel was further evaluated by performing a frequency sweep from 0.1 to 100 rads and a strain sweep at 6 rads from 0.1% to 1000% strain. Oil was placed around the sample and on the plate to prevent evaporation. […]

[2] = Circular dichroism spectroscopy of peptide folding and assembly; conditions: for Folding state by CD under gelation conditions / Folding state by CD in water: 1% w/v; for Folding state by CD under gelation conditions: pH 7.4, 150 mM NaCl, 25 or 37° C.; for Folding state by CD in water: 5° C.; for Temperature needed to induce folding and assembly: pH 7.4 buffer with NaCl, ellipticity at 216 nm vs temperature
Method: The ability of APC1 and APC2 to fold and associate into β-sheet rich assemblies was monitored using circular dichroism (CD) spectroscopy. In water at 5° C., the CD spectra of 1% w/v solutions of APC1 and APC2 indicate that the peptides are unfolded under these conditions (FIG. 4A). […] The NaCl screens the lysine point charges and increasing the temperature drives the hydrophobic effect, both of which favor folding and assembly. The exact temperatures needed to induce folding and assembly of each peptide were determined by monitoring the mean ellipticity at 216 nm as a function of temperature as shown in FIG. 13. In all the CD experiments, self-supporting hydrogels of both peptides (pH 7.4, 150 mM NaCl) form directly in the cuvette after folding is triggered. The same procedure can be used to form the gels directly in a syringe. […] Also evident in the spectra are absorptions due to the indoline cage, which occur in the near UV-CD (240-380 nm). […] However, when the peptides fold and assemble, the indoline ring is placed into a chiral environment, such as that provided by the fibril's hydrophobic interior. […] Importantly, it also supports the assertion that if the glutamate's negative point-charge were to be unmasked when the peptides are in the folded and assembled fibrillar state, that this event should be disruptive.
Circular Dichroism (CD). CD spectra of peptide hydrogels were collected on an AVIV 410 spectropolarimeter (AVIV Biomedical Inc., NJ). For wavelength spectra of APC1 and APC2 in water, a 1 wt % solution of peptide was prepared by dissolving lyophilized peptide in water at 5° C. The peptide solution was transferred to a 0.1 mm path length cylindrical cell and placed in the spectrometer sample holder equilibrated at 5° C. For temperature-dependent folding of 1 wt % hydrogels, a 2 wt % peptide solution was first prepared by dissolving lyophilized peptide in water and chilling on ice. Then, an equal volume of chilled 100 mM BTP, 300 mM NaCl, pH 7.4 buffer was added, gently mixed, and quickly transferred to a 0.1 mm path length cylindrical cell and placed in the spectrometer sample holder equilibrated at 5° C. The CD spectra were collected from 200-260 nm or 200-400 nm as a function of temperature at 5 degree increments from 5-80° C. with 10 min equilibration at each temperature. For UV photolysis of 1% w/v hydrogels, the solution was prepared in a manner identical to the folding studies and placed in the spectrometer at 25° C. or 37° C. for 30 minutes. The hydrogel within the cylindrical cell was irradiated for the specified time interval, followed by recording the mean residue ellipticity at 216 nm. For APC1, irradiation and spectra were obtained at 10 second intervals for the first 60 seconds, then at 1 minute intervals for a total of 5 minutes. For APC2, irradiation and spectra were obtained at 1 minute intervals for a total of 15 minutes. At the final time point, a wavelength spectrum from 200-400 nm of each peptide was obtained. Peptide concentration was determined by UV spectroscopy using ε220nm=16448 M^−1cm^−1 for cAPC1 and cAPC2 and ε220nm=31144 M^−1cm^−1 for APC1 and APC2. The mean residue ellipticity [θ] was calculated from [θ]=(θobs/10 lc)/r, where θobs is the measured ellipticity in degrees, l is the path length in centimeters, c is the concentration in molar, and r is the number of residues in the sequence. Each CD spectra shown is representative of three individual experiments, where each data point represents the average of 30 measurements, with a variance in ellipticity of 0.2 millidegrees at each wavelength.

[3] = UV photolysis of the indoline cage followed by absorbance at 248 nm; conditions: absorbance at 248 nm during irradiation
Source text: FIGS. 6A and 6B test that assertion by following the fate of both the 4-methoxy-7-nitroindoline (MNI) group as well as the caged peptide during photolysis. In FIG. 6A, the absorbance of APC1 at 248 nm is followed as a function of time during irradiation. Absorbance at this wavelength is mainly due to the intact indoline cage. […] In FIG. 6B, photolysis of the caged peptide is followed by RP-HPLC. […] Mass spectroscopy was used to confirm the identity of both species.

Substance	Storage modulus (G′) of formed gel, regime I time sweep [1]	Onset of gelation after triggering ([1]; 1% w/v)	Folding state by CD under gelation conditions [2]	Folding state by CD in water [2]	Temperature needed to induce folding and assembly [2]	Storage modulus (G′) after UV irradiation, regime III ([1]; 365 nm, 10 minutes, recovered 1% w/v gel)	Storage modulus (G′) recovered after shear thinning ([1]; 1000% strain for 30 seconds, then 0.2% strain, 1% w/v)	Irradiation time to almost complete photolysis of the indoline cage [3]
VKVKGKVKV^DPPTKVEZKVKV [APC2]	20,000 Pa	significant lag phase	β-sheet secondary structure	unfolded	37 °C			
Ac-VKVKVKGKV^DPPTKZEVKVKV-NH2 [APC1]	~2,500 Pa	within the first few minutes	β-sheet secondary structure	unfolded	25 °C	~180 Pa	1900 Pa	90 s

— US10086108B2, “Hydrogels and use thereof in anastomosis procedures” (The United States of America, as represented by the …, priority 2015, dated 2018)
